Assay results: EP3818828A1 (priority 2019, dated 2021)

Assays:
[1] = test system: Blumeria graminis f.sp.tritici; test: In-vivo greenhouse control of wheat powdery mildew; conditions: winter wheat, 0.20 mg/mL (active ingredients), application from early onset
Protocol: 3.88 g of 3-(3',4'-methylenedioxy phenyl)-N-n-propyl acrylamide was weighed and dissolved in 25 g of absolute ethyl alcohol, then 6 g of emulsifier 0203B was added, and mixed uniformly with stirring to get 10% of 3-(3',4'-methylenedioxy phenyl)-N-n-propyl acrylamide EC.
5.61 g of 3-(3',4'-methylenedioxy phenyl)-piperidine acrylate was weighed and dissolved in 25 g of absolute ethyl alcohol, then 6 g of emulsifier 0203B was added, and mixed uniformly with stirring to get 14% of 3-(3',4'-methylenedioxy phenyl)-piperidine acrylate EC.
Winter wheat (Variety: Huixian Red) was sown in pots in a greenhouse, and inoculated with a fresh spore suspension of Blumeria graminis f.sp.tritici by spraying on its leaves and stems at the stage of 2 leaves. The first application was started at the early onset of powdery mildew. Both sides of the leaves were sprayed evenly with a small hand-held sprayer so that the leaves were wetted by the liquor without loss. 10% of 3-(3',4'-methylenedioxy phenyl)-N-n-propyl acrylamide EC and 14% of 3-(3',4'-methylenedioxy phenyl)-piperidine acrylate EC were both diluted at two concentrations of 0.20 and 0.143 mg/mL (active ingredients), and the control agent, 15% of triazolone WP, was also diluted at two concentrations of 0.20 and 0.143 mg/mL (active ingredients), additionally clear water was used as the control. […]

Pythium ultimum = test: Supplementary ex vivo determination of antifungal activity; type: cell-based; conditions: compared with carbendazim
Protocol: (§1) The inhibition of samples for testing on the mycelial growth of plant pathogenic fungi for testing is determined with a growth rate method. 3-(3',4'-methylenedioxy phenyl)-N-n-propyl acrylamide, 3-(3',4'-methylenedioxy phenyl)-piperidine acrylate and five control agents are dissolved with dimethyl sulfoxide (DMSO), then formulated at 5-7 concentrations of different gradients for test following the trial test results, with the same concentration of DMSO as the control solvent, each treatment in triplicate. Fungal cakes with a diameter of 4 mm are taken from the edge of the colony, inoculated into the center of a PDA plate containing different agents of different concentrations and the DMSO control, with one piece of fungal cake inoculated in each plate (with a diameter of […]), and incubated in a constant temperature incubator at a temperature of 22±1.5°C. 7 days later (10-20 days may be needed for some pathogenic fungi), the diameter of the colony is measured with a cross over method according to the mycelial growth profile of the control pathogenic fungi, then the inhibition rate of mycelial growth is calculated.

F. graminearum = test: microbe, parasite or virus in culture; type: cell-based; conditions: for Average Diameter of the Colony: F. graminearum, 1 mg/mL; for inhibition at 1000 µg/mL: Fusarium graminearum, read-out: Inhibition Rate
C. gossypii = test: Ex vivo mycelial growth inhibition, growth rate method; type: cell-based; conditions: 1 mg/mL; for Average Diameter of the Colony: C. gossypii; for inhibition at 1000 µg/mL: Colletotrichum gossypii, C. cossypii, read-out: Inhibition Rate
Text: (§2) 3-(3',4'-methylenedioxy phenyl)-N-n-propyl acrylamide (at a purity of 99%), 3-(3',4'-methylenedioxy phenyl)-piperidine acrylate (at a purity of 99%), the control agents, 96.5% of chlorothalonil technical (non-systemic broad-spectrum fungicide), 97.2% of carbendazim technical (systemic broad-spectrum fungicide), 97.0% of procymidone technical (systemic fungicide), 96.0% of dimethomorphtechnical ((E,Z)-4-[3-(4-chlorphenyl)3-(3,4-dimethoxy phenyl)acryloyl]morpholine, systemic fungicide), 97.0% of azoxystrobin technical (systemic broad-spectrum fungicide).
as §1
(§3) The computational formula is as below: the inhibition rate of mycelial growth (%) = [(the diameter of the control colony - the diameter of the treated colony)/the diameter of the control colony] × 100.
(§4) The inhibition results of each agent at a concentration of 1 mg/mL on the mycelial growth of plant pathogenic fungi are shown in Tables 1 and 2.

Thanatephorus cucumeris = test: as above; type: cell-based; conditions: 1 mg/mL
Text: as §2, §1, §3, §4

F. verticillioide = test: as above; type: cell-based; conditions: 1 mg/mL
Text: as §2, §1, §3, §4

[2] = test system: F. oxysporum f. sp. vasinfectum; test: as above; type: cell-based; conditions: 1 mg/mL; for inhibition at 1000 µg/mL: Fusarium oxysporum
Text: as §2, §1, §3, §4

[3] = test system: Botryosphaeriana berengeriana; test: as above; type: cell-based; conditions: 1 mg/mL
Text: as §2, §1, §3, §4

[4] = test system: Botryosphaeria berengeriana; test: as above; type: cell-based; conditions: 1 mg/mL
Text: as §2, §1, §3, §4

Valsa mali = test: as above; type: cell-based; conditions: 1 mg/mL; for inhibition at 1000 µg/mL: Cytospora mali
Text: as §2, §1, §3, §4

Mycosphaerlla melonis = test: as above; type: cell-based; conditions: 1 mg/mL
Text: as §2, §1, §3, §4

Exserohilum turcicum = test: as above; type: cell-based; conditions: 1 mg/mL
Text: as §2, §1, §3, §4

Phytophthora capsici = test: as above; type: cell-based; conditions: for Average Diameter of the Colony / inhibition at 1000 µg/mL: Phytophthora capsici, 1 mg/mL; for antifungal activity against Phytophthora capsici: supplementary determination, compared with hymexazol
Text: as §2, §1, §3, §4

Colletotrichum capsici = test: as above; type: cell-based; conditions: 1 mg/mL; for inhibition at 1000 µg/mL: Colletotrichum truncatum
Text: as §2, §1, §3, §4

[5] = test system: Gaeumannomyces graminis var. graminis and G. graminis var. tritici; test: as above; type: cell-based; conditions: 1 mg/mL
Text: as §2, §1, §3, §4

Sclerotinia sclerotiorum = test: as above; type: cell-based; conditions: 1 mg/mL
Text: as §2, §1, §3, §4

Coniella diplodiella = test: as above; type: cell-based; conditions: 1 mg/mL
Text: as §2, §1, §3, §4

Pythium aphanidermatum = test: as above; type: cell-based; conditions: 1 mg/mL
Text: as §2, §1, §3, §4

Rhizoctonia solani = test: as above; type: cell-based; conditions: for Average Diameter of the Colony / inhibition at 1000 µg/mL: Rhizoctonia solani, 1 mg/mL
Text: as §2, §1, §3, §4

F. oxysporum f. sp. lini = test: as above; type: cell-based; conditions: 1 mg/mL; for inhibition at 1000 µg/mL: Fusarium oxysporum
Text: as §2, §1, §3, §4

Botrytis cinerea = test: as above; type: cell-based; conditions: 1 mg/mL
Text: as §2, §1, §3, §4

CCCNC(=O)/C=C/c1ccc2c(c1)OCO2 [3-(3',4'-methylenedioxyphenyl)-N-n-propyl acrylamide]
Control Effect [1]: 86.97%
antifungal activity against Pythium ultimum (Pythium ultimum): superior to that of the control agent, carbendazim
Average Diameter of the Colony (F. graminearum): 3.49 cm
inhibition at 1000 µg/mL (F. graminearum): 59.4%
Average Diameter of the Colony (C. gossypii): 1.74 cm
inhibition at 1000 µg/mL (C. gossypii): 67.8%
Average Diameter of the Colony (Thanatephorus cucumeris): 3.51 cm
inhibition at 1000 µg/mL (Thanatephorus cucumeris): 59.2%
Average Diameter of the Colony (F. verticillioide): 2.94 cm
inhibition at 1000 µg/mL (F. verticillioide): 13%
Average Diameter of the Colony [2]: 3.03 cm
inhibition at 1000 µg/mL [2]: 58.1%
Average Diameter of the Colony [3]: 4.63 cm
inhibition at 1000 µg/mL [3]: 18.8%
Average Diameter of the Colony [4]: 3.60 cm
inhibition at 1000 µg/mL [4]: 47.1%
Average Diameter of the Colony (Valsa mali): 0.65 cm
inhibition at 1000 µg/mL (Valsa mali): 91.8%
Average Diameter of the Colony (Mycosphaerlla melonis): 0.58 cm
inhibition at 1000 µg/mL (Mycosphaerlla melonis): 93.3%
Average Diameter of the Colony (Exserohilum turcicum): 1.44 cm
inhibition at 1000 µg/mL (Exserohilum turcicum): 76.8%
Average Diameter of the Colony (Phytophthora capsici): 0.65 cm
inhibition at 1000 µg/mL (Phytophthora capsici): 87.7%
antifungal activity against Phytophthora capsici (Phytophthora capsici): superior to that of the control agent, hymexazol
Average Diameter of the Colony (Colletotrichum capsici): 1.66 cm
inhibition at 1000 µg/mL (Colletotrichum capsici): 75.5%
Average Diameter of the Colony [5]: 3.05 cm
inhibition at 1000 µg/mL [5]: 57.3%
Average Diameter of the Colony (Sclerotinia sclerotiorum): 3.28 cm
inhibition at 1000 µg/mL (Sclerotinia sclerotiorum): 61.9%
Average Diameter of the Colony (Coniella diplodiella): 0.00 cm
inhibition at 1000 µg/mL (Coniella diplodiella): 100%
Average Diameter of the Colony (Pythium aphanidermatum): 0.21 cm
inhibition at 1000 µg/mL (Pythium aphanidermatum): 96.9%
Average Diameter of the Colony (Rhizoctonia solani): 0.25 cm
inhibition at 1000 µg/mL (Rhizoctonia solani): 96.5%
Average Diameter of the Colony (F. oxysporum f. sp. lini): 6.30 cm
inhibition at 1000 µg/mL (F. oxysporum f. sp. lini): 30%
Average Diameter of the Colony (Botrytis cinerea): 1.35 cm
inhibition at 1000 µg/mL (Botrytis cinerea): 82%

O=C(/C=C/c1ccc2c(c1)OCO2)N1CCCCC1 [3-(3',4'-methylenedioxyphenyl)-piperidine acrylate]
Control Effect [1]: 59.11%
antifungal activity against Pythium ultimum (Pythium ultimum): superior to that of the control agent, carbendazim
Average Diameter of the Colony (F. graminearum): 0.00 cm
inhibition at 1000 µg/mL (F. graminearum): 100%
Average Diameter of the Colony (C. gossypii): 0.10 cm
inhibition at 1000 µg/mL (C. gossypii): 98.2%
Average Diameter of the Colony (Thanatephorus cucumeris): 0.00 cm
inhibition at 1000 µg/mL (Thanatephorus cucumeris): 100%
Average Diameter of the Colony (F. verticillioide): 0.49 cm
inhibition at 1000 µg/mL (F. verticillioide): 85.5%
Average Diameter of the Colony [2]: 0.40 cm
inhibition at 1000 µg/mL [2]: 94.5%
Average Diameter of the Colony [3]: 0.14 cm
inhibition at 1000 µg/mL [3]: 97.5%
Average Diameter of the Colony [4]: 0.22 cm
inhibition at 1000 µg/mL [4]: 96.8%
Average Diameter of the Colony (Valsa mali): 0.00 cm
inhibition at 1000 µg/mL (Valsa mali): 100%
Average Diameter of the Colony (Mycosphaerlla melonis): 0.00 cm
inhibition at 1000 µg/mL (Mycosphaerlla melonis): 100%
Average Diameter of the Colony (Exserohilum turcicum): 0.34 cm
inhibition at 1000 µg/mL (Exserohilum turcicum): 94.5%
Average Diameter of the Colony (Phytophthora capsici): 0.00 cm
inhibition at 1000 µg/mL (Phytophthora capsici): 100%
antifungal activity against Phytophthora capsici (Phytophthora capsici): superior to that of the control agent, hymexazol
Average Diameter of the Colony (Colletotrichum capsici): 0.28 cm
inhibition at 1000 µg/mL (Colletotrichum capsici): 95.9%
Average Diameter of the Colony [5]: 0.39 cm
inhibition at 1000 µg/mL [5]: 94.5%
Average Diameter of the Colony (Sclerotinia sclerotiorum): 0.00 cm
inhibition at 1000 µg/mL (Sclerotinia sclerotiorum): 100%
Average Diameter of the Colony (Coniella diplodiella): 0.00 cm
inhibition at 1000 µg/mL (Coniella diplodiella): 100%
Average Diameter of the Colony (Pythium aphanidermatum): 0.06 cm
inhibition at 1000 µg/mL (Pythium aphanidermatum): 99.1%
Average Diameter of the Colony (Rhizoctonia solani): 0.00 cm
inhibition at 1000 µg/mL (Rhizoctonia solani): 100%
antifungal activity against Rhizoctonia solani (Rhizoctonia solani; supplementary determination, compared with chlorothalonil, dimethomorph and azoxystrobin): superior to that of chlorothalonil, dimethomorph and azoxystrobin
Average Diameter of the Colony (F. oxysporum f. sp. lini): 2.73 cm
inhibition at 1000 µg/mL (F. oxysporum f. sp. lini): 69.7%
Average Diameter of the Colony (Botrytis cinerea): 0.25 cm
inhibition at 1000 µg/mL (Botrytis cinerea): 96.7%
